{"source": "patent US6534526B2", "about": "“Laminitis in horses” (Clemson University, priority 2001, dated 2003)", "key": {"laminitis in horses": {"tested_on": "laminitis in horses", "experiment": "Oral domperidone treatment of laminitic horses (case examples 1-6)"}, "[1]": {"conditions": "α-adrenergic antagonists examined for laminitis; background statement; cited from earlier work"}}, "note": "Structures can show the parent of a compound that is named as a salt."}
{"smiles": "O=c1[nH]c2ccccc2n1CCCN1CCC(n2c(=O)[nH]c3cc(Cl)ccc32)CC1", "note": "[domperidone, 5-Chloro-1-[1-[3-(2,3-dihydro-2-oxo-1H-benzimidazol-1-yl)propyl]-4-piperidinyl]-1,3-dihydro-2H-benzimidazol-2-one]", "values": [{"measurement": "side effects during treatment", "setting": "laminitis in horses; Example 1: 1.1 mg/kg orally twice a day", "result": "no side effects noted"}, {"measurement": "time the mare remained sound", "setting": "laminitis in horses; Example 1: 1.1 mg/kg orally twice a day for 15 days", "result": "at least 15 days"}, {"measurement": "laminitic symptoms", "setting": "laminitis in horses; Example 1: 15 year old Arabian mare, chronic founder, 1.1 mg/kg orally twice a day, after three days of treatment", "result": "laminitic symptoms had disappeared"}, {"measurement": "return of laminitic symptoms", "setting": "laminitis in horses; Example 1: after the resumed treatment", "result": "Laminitic symptoms did not return"}, {"measurement": "soundness after resumed treatment", "setting": "laminitis in horses; Example 1: treatment resumed a few weeks later after return of symptoms, after four days of treatment", "result": "the mare was sound again"}, {"measurement": "walking / stiffness", "setting": "laminitis in horses; Example 2: pony of approx. 400 pounds, laminitic founder due to grain overload, 1.1 mg/kg orally twice per day, second day of treatment", "result": "walking the second day of treatment with no apparent stiffness"}, {"measurement": "recovery", "setting": "laminitis in horses; Example 2: pony, treatment continued for an additional two days", "result": "Complete recovery was apparent"}, {"measurement": "return of symptoms", "setting": "laminitis in horses; Example 3: total treatment 5 days", "result": "No return of symptoms was noted"}, {"measurement": "symptoms", "setting": "laminitis in horses; Example 3: two horses with early signs of laminitis, 1.1 mg/kg orally twice per day, after two days of treatment", "result": "Symptoms were gone in both animals"}, {"measurement": "signs of laminitis", "setting": "laminitis in horses; Example 4: mare laminitic for several weeks, 1.1 mg/kg orally SID for 5 days, after three days of treatment", "result": "showing no signs of laminitis"}, {"measurement": "recovery", "setting": "laminitis in horses; Example 4: mare, 1.1 mg/kg orally SID for 5 days", "result": "fully recovered"}, {"measurement": "return of laminitic symptoms", "setting": "laminitis in horses; Example 5: 1.1 mg/kg orally SID for 5 days", "result": "did not return"}, {"measurement": "laminitic symptoms", "setting": "laminitis in horses; Example 5: horse with lameness of unknown etiology, 1.1 mg/kg orally SID for 5 days", "result": "disappeared after the second day of treatment"}, {"measurement": "improvement", "setting": "laminitis in horses; Example 6: 1.1 mg/kg domperidone orally twice a day plus banamine plus acepromazine, after ten days of treatment", "result": "about 75%"}, {"measurement": "walking", "setting": "laminitis in horses; Example 6: Paso Fino mare, 1.1 mg/kg domperidone orally twice a day plus banamine plus acepromazine, afternoon of the second day of treatment", "result": "had improved and was walking some on her own, without prodding"}, {"measurement": "effectiveness against laminitic symptoms", "setting": "laminitis in horses; horses, recommended concentrations, administered at least once per day", "result": "found to be effective"}, {"measurement": "benefit at higher oral concentrations", "setting": "laminitis in horses; oral, concentrations greater than 3.3 mg/kg", "result": "no further benefits have been observed"}, {"measurement": "oral concentration giving the best results", "setting": "laminitis in horses; taken orally", "result": "about 1.1 mg/kg"}]}
{"smiles": "CC(COc1ccccc1)N(CCCl)Cc1ccccc1", "note": "(centres unmarked) [phenoxybenzamine]", "values": [{"measurement": "side effects", "setting": "[1]", "result": "hypotension, recumbency, and a prolonged duration of action"}]}
{"smiles": "CC(=O)c1ccc2c(c1)N(CCCN(C)C)c1ccccc1S2", "note": "[acepromazine maleate]", "values": [{"measurement": "side effects", "setting": "[1]", "result": "sedation and cholinesterase inhibition"}]}
